# Measured values: patent US6372769B1 (priority 1999, dated 2002)
# “And” between values parts separate entries of the source, which are not always exact repeats. Equal values may be shown once.
# What was measured:
# Conditions in all cases: in vivo
# [1] = test system: Erysiphe graminis f. sp. tritici
# [2] = test system: Puccinia recondita f. sp. tritici
# [3] = test system: Pyricularia oryzae
# [4] = test system: Sphaerotheca fulginea
# [5] = test system: Septoria nodorum
# [6] = test system: Plasmopara viticola
SMILES,"percent disease control, Wheat Powdery Mildew (WPM) [1]","percent disease control, Wheat Leaf Rust (WLR) [2]",plant damage (necrosis / death of plant) in RB test [3],"percent disease control, Cucumber Powdery Mildew (CPM) [4]",plant damage (necrosis / death of plant) in SNW test [5],"percent disease control, Grape Downy Mildew (GDM) [6] [%]","percent disease control, Rice Blast (RB) [3]","percent disease control, Septoria on Wheat (SNW) [5]"
O=C(Nc1c(Cl)c(Cl)c(Cl)c(Cl)c1Cl)c1sc(C(F)(F)F)nc1C(F)(F)F [Compound 2],80% and 75% and 50%,100% and 99% and 90%,–,–,–,–,–,–
O=C(Nc1c(Br)cc(Br)cc1Br)c1sc(C(F)(F)F)nc1C(F)(F)F [Compound 3],85% and 80% and 50%,99% and 90% and 85%,–,–,–,–,–,–
O=C(Nc1cc(F)c(F)c(F)c1F)c1sc(C(F)(F)F)nc1C(F)(F)F [Compound 4],–,–,50/5,0% and 0/5%,—/5,–,–,–
O=C(Nc1c(Br)cc(OC(F)(F)F)cc1Br)c1sc(C(F)(F)F)nc1C(F)(F)F [Compound 5],95% and 80%,100% and 95%,–,–,–,0,95% and 90%,80% and 75%
